Reference: patent US20110319660A1 (Galactic SA, priority 2008, published 2011)

Key:
[1] = Secondary nucleation temperature Tn of lactic acid solution; type: physicochemical
Experimental: We measured the secondary nucleation temperature for more reproducibility. For this purpose, a few large crystals (three or four) are introduced into the slightly subcooled solution (26° C.). These crystals are used to initiate nucleation. To obtain nucleation, the solution is cooled according to a cooling gradient of 10° C./hr. The nucleation temperature is measured when the first crystal (excluding crystals in solution) appears.

[2] = Thermal stability test: colour after heating at reflux at 200° C. for two hours; details: 90% solution of crystals
Experimental: The analyses conducted on the 90% crystal solutions are a measurement of the colour at ambient temperature (APHA scale in Hazen units) and a thermal stability test consisting of measuring the colour (APHA scale in Hazen units) of the substance after heating at reflux at a temperature of 200° C. for two hours.

[3] = Specific surface area by mass of crystals by optical microscopy; type: physicochemical
Description: The specific surface area by mass (SSM) of crystals is the area developed by the crystals per unit of weight. The specific surface area by mass (SSM) is used to compare the dimensional characteristics of crystals of a suspension or a powder with those of another suspension or powder. This specific surface area can be measured by means of optical imaging on the basis of a volume (Vm) and the mean surface area (Sm) of hundreds of crystals (by measuring the length of the face thereof) and the density of the crystals (Dc):
The crystal size measurements were made using an optical microscope (Askania RME5) equipped with a digital camera (Nikon Coolpix 4500) with crystal measurement software supplied by Leica. For both test conditions, the length (L1) and thickness (L2) of 200 crystals were measured.
The specific surface area by mass of the crystals obtained at low supersaturation is 0.03 m^2/g whereas that of the crystals at high supersaturation is 0.06 m^2/g. This is calculated by taking the surface area and the volume of a parallelepiped having a length L1 and width and thickness L2.
The specific surface area by mass of the crystals is also estimated by measuring the length and thickness of 200 crystals of each sample according to the protocol described in example 1.

`CC(O)C(=O)O` (centres unmarked) [lactic acid, hydroxy-2-propanoic acid] gave a secondary nucleation temperature ([1]; Example 1: lactic acid concentration 92%, colour 2000 Hazen, relative monomer content 96%) of 18 °C, a Tn ([1]; Example 2: lactic acid concentration 90%, colour 1800 Hazen, relative monomer content 94%) of 18 °C and a Tn ([1]; Example 4: lactic acid concentration 95.4%, colour 1900 Hazen, relative monomer content 91%) of 33 °C. The Tn ([1]; total acidity 89%, free acidity 78.7%, relative monomer content 77%) was 8 °C, the Tn ([1]; total acidity 89%, free acidity 84%, relative monomer content 89%) was 15 °C and the Tn ([1]; total acidity 89%, free acidity 87.6%, relative monomer content 97.5%) was 22 °C. For the same molecule, the Tn ([1]; total acidity 89%, free acidity 88.2%, relative monomer content 99%) was 23 °C, the “Colour after heating (200° C., 2 hrs), after drying” value (from here on “Colour after heating … after drying”) ([2]; Example 2: supersaturation 14%) was 500 Hazen and the “Colour after heating (200° C., 2 hrs), after passage on Noritt ROX activated carbon (20 g/l)” value ([2]; Example 2: supersaturation 14%) was 25 Hazen. For the same molecule, the “Colour after heating (200° C., 2 hrs), after washing (25% of a 90% lactic acid solution, 4° C.)” value ([2]; Example 2: supersaturation 14%) was 49 Hazen, the “Colour after heating … after drying” value ([2]; Example 2: supersaturation 50%) was 900 Hazen and the “Colour after heating (200° C., 2 hrs), after passage on Noritt ROX activated carbon (20 g/l)” value ([2]; Example 2: supersaturation 50%) was 45 Hazen. The “Colour after heating (200° C., 2 hrs), after washing (25% of a 90% lactic acid solution, 4° C.)” value ([2]; Example 2: supersaturation 50%) was 88 Hazen, the “Colour after heating … after drying” value ([2]; Example 2: supersaturation 86%) was 1328 Hazen and the “Colour after heating (200° C., 2 hrs), after washing (25% of a 90% lactic acid solution, 4° C.)” value ([2]; Example 2: supersaturation 86%) was 480 Hazen. For the same molecule, the “Specific surface area by mass” value ([3]; Example 1: crystals obtained at high supersaturation Ds^c=87.5%) was 0.06 m^2/g, the “Specific surface area by mass” value ([3]; Example 1: crystals obtained at low supersaturation Ds^c=12.5%) was 0.03 m^2/g and the “Specific surface area by mass” value ([3]; Example 2: crystals, supersaturation 14%) was 0.03 m^2/g. For the same molecule, the “Specific surface area by mass” value ([3]; Example 2: crystals, supersaturation 50%) was 0.045 m^2/g and the “Specific surface area by mass” value ([3]; Example 2: crystals, supersaturation 86%) was 0.07 m^2/g.
